Test results as given in ChEMBL document CHEMBL1157971, “Euphoportlandols A and B, tetracylic diterpene polyesters from Euphorbia portlandica and their anti-MDR effects in cancer cells” (J Nat Prod, 2006).

Tests used:
Type in all cases: cell-based
[1] = molecular target: T1, ATP-dependent translocase ABCB1 (Homo sapiens, UniProt P08183); experiment: Inhibition of human MDR1-mediated rhodamine efflux in mouse L5178 cells assessed as mean fluorescence intensity at 4 ug/mL by flow cytometry
[2] = molecular target: T1, ATP-dependent translocase ABCB1; experiment: Inhibition of human MDR1-mediated rhodamine efflux in mouse L5178 cells assessed as fluorescence activity ratio at 40 ug/mL by flow cytometry relative to untreated control
[3] = molecular target: T1, ATP-dependent translocase ABCB1; experiment: Inhibition of human MDR1-mediated rhodamine efflux in mouse L5178 cells assessed as mean fluorescence intensity at 40 ug/mL by flow cytometry
[4] = molecular target: T1, ATP-dependent translocase ABCB1; experiment: Inhibition of human MDR1-mediated rhodamine efflux in mouse L5178 cells assessed as fluorescence activity ratio at 4 ug/mL by flow cytometry relative to untreated control

T1 sequence (P08183 whole entry): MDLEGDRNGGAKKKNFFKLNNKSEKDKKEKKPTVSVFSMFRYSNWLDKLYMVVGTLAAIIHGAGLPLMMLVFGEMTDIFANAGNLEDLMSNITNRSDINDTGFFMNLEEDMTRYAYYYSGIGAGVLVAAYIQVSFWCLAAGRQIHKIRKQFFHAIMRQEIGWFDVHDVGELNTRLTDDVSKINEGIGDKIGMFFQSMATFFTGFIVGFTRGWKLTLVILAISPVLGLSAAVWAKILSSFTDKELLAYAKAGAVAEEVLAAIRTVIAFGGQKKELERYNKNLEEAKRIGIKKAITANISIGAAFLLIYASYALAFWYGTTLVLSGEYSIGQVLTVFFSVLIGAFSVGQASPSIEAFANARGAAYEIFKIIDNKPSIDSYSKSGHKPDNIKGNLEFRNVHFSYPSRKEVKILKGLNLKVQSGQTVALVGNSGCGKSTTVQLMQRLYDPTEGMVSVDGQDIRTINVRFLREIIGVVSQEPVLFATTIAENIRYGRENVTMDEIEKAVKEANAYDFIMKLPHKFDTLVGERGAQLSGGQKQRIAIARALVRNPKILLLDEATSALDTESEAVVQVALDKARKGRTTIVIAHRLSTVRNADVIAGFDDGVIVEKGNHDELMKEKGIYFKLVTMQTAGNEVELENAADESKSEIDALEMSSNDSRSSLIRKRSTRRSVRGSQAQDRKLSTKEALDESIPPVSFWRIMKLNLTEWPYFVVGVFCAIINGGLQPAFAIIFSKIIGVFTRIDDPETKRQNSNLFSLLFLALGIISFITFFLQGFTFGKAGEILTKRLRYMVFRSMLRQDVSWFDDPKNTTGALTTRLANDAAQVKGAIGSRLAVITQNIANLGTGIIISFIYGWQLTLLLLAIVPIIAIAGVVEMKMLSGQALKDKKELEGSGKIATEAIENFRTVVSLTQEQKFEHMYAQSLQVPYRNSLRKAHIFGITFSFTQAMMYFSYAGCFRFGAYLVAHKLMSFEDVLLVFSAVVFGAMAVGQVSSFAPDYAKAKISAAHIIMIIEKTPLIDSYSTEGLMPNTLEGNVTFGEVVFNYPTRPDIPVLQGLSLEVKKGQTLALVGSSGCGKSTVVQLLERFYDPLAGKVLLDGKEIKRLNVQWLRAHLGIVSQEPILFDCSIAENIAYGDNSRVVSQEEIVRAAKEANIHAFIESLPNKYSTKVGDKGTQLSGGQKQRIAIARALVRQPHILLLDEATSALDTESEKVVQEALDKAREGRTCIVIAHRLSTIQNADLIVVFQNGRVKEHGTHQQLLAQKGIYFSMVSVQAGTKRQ

SMILES | Flu intensity [1] | Ratio [2] | Flu intensity [3] | Ratio [4]
CC(=O)OC1[C@]2(O)CC3=C([C@H](OC(C)=O)C(C)(C)C3=O)[C@@]1(C)[C@@H](OC(C)=O)[C@@]1(O)C[C@H](C)[C@H](OC(=O)c3ccccc3)[C@@H]1[C@H]2OC(C)=O (stereo partly drawn) [EUPHOPORTLANDOL A] | 49.8 | 40.3 | 880.2 | 2.3
CC(=O)OC1[C@@]2(C)[C@@H]3[C@@H](C[C@]1(O)[C@H](OC(C)=O)[C@H]1[C@@H](OC(=O)c4ccccc4)[C@@H](C)C[C@]1(O)[C@@H]2OC(C)=O)C(=O)C(C)(C)[C@H]3OC(C)=O (stereo partly drawn) [EUPHOPORTLANDOL B] | 30.8 | 30.7 | 670.5 | 1.4
